Molecular target: T1, LRRK2(G2019S mutation, GST-LRRK2(amino acids 970-2527)) (Homo sapiens (Human), UniProt Q5S007, G2019S)
Experiment: LRRK2 Km ATP LanthaScreen Assay
Type: biochemical
Details: Examples P1-P18
Outline: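 TR-FRET: GST-LRRK2 970-2527 G2019S (2.5 nM solution) preincubated 30 min with compound (98 μM top, 1:2.15 dilutions), then 800 nM fluorescein-LRRKtide and 184 μM ATP solution added for 60 min at room temperature in Tris pH 8.5 buffer. Stopped with EDTA and Tb anti-phospho-LRRKtide antibody; IC50 is a mean of several tests.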

T1 sequence (Q5S007 970-2527 G2019S): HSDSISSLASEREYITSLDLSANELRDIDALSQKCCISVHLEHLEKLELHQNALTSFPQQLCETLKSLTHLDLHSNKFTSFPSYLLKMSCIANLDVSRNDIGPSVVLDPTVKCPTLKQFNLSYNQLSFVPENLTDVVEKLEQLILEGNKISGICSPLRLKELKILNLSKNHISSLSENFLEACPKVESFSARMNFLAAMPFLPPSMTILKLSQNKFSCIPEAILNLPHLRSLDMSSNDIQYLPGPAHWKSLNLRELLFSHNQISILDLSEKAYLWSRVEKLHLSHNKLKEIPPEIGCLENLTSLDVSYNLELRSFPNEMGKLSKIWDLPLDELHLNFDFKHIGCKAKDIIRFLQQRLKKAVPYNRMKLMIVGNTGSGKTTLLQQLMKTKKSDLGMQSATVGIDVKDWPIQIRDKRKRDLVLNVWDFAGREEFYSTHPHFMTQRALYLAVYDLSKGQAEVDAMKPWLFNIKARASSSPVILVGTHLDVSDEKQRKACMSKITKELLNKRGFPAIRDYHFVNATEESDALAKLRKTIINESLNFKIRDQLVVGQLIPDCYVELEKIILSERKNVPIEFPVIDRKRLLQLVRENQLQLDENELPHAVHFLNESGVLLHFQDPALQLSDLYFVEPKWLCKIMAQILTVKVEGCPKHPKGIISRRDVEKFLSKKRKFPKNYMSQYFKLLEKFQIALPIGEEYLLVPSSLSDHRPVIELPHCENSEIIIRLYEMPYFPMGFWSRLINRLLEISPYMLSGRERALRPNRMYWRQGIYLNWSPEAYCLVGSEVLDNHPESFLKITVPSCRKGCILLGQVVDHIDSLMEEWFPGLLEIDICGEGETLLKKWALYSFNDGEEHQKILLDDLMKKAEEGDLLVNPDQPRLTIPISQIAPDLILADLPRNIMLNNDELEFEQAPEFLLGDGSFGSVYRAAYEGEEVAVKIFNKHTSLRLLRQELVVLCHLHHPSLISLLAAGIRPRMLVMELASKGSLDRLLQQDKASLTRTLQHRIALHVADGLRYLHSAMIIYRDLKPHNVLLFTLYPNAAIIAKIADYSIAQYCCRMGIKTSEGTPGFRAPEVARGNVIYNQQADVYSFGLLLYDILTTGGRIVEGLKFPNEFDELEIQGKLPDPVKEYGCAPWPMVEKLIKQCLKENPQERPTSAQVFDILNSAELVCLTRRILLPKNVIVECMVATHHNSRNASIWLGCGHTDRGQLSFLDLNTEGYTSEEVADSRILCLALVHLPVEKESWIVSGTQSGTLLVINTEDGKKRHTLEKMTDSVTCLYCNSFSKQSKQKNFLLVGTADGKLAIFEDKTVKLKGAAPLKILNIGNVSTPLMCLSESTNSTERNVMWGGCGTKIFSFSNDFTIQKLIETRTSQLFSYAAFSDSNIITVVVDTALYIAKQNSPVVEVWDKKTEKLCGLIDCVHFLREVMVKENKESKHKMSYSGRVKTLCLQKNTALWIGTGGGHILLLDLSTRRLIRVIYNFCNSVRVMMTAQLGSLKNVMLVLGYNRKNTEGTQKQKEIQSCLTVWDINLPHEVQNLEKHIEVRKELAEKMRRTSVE

| SMILES | IC50 [nM] |
| --- | --- |
| Cn1nccc1-c1ccc2[nH]nc(-c3cc(N4CCOCC4)ncn3)c2c1 [Example P13] | 45.7 |
| COc1ncccc1-c1ccc2[nH]nc(-c3cc(N4CCOCC4)ncn3)c2c1 [Example P14] | 37.7 |
| Cc1nocc1-c1ccc2[nH]nc(-c3cc(N4CCOCC4)ncn3)c2c1 [Example P15] | 59 |
| COCCn1cc(-c2ccc3[nH]nc(-c4cc(N5CCOCC5)ncn4)c3c2)cn1 [Example P16] | 1.5 |
| COc1ccc(-c2ccc3[nH]nc(-c4cc(N5CCOCC5)ncn4)c3c2)cn1 [Example P17] | 31.2 |
| O=C(NCCO)c1ccc(-c2ccc3[nH]nc(-c4cc(N5CCOCC5)ncn4)c3c2)cc1 [Example P18] | 154 |

Same assay, conditions: Examples Q1-Q20

| SMILES | IC50 [nM] |
| --- | --- |
| C[C@@H]1CN(c2cc(-c3n[nH]c4ccc(-c5ccc6ncnn6c5)cc34)ncn2)C[C@H](C)O1 [Example Q1] | 240 |
| COc1ncccc1-c1ccc2[nH]nc(-c3cc(N4C[C@@H](C)O[C@@H](C)C4)ncn3)c2c1 [Example Q2] | 158 |
| C[C@@H]1CN(c2cc(-c3n[nH]c4ccc(-c5ccnn5C)cc34)ncn2)C[C@H](C)O1 [Example Q3] | 32.1 |
| Cc1cncc(-c2ccc3[nH]nc(-c4cc(N5C[C@@H](C)O[C@@H](C)C5)ncn4)c3c2)c1 [Example Q4] | 2.2 |
| Cc1nocc1-c1ccc2[nH]nc(-c3cc(N4C[C@@H](C)O[C@@H](C)C4)ncn3)c2c1 [Example Q5] | 40 |
| C[C@@H]1CN(c2cc(-c3n[nH]c4ccc(-c5ccncc5)cc34)ncn2)C[C@H](C)O1 [Example Q6] | 49.5 |
| COc1cnc(-c2ccc3[nH]nc(-c4cc(N5C[C@@H](C)O[C@@H](C)C5)ncn4)c3c2)cn1 [Example Q7] | 63.4 |
| C[C@@H]1CN(c2cc(-c3n[nH]c4ccc(-c5cncnc5)cc34)ncn2)C[C@H](C)O1 [Example Q8] | 30.3 |
| COc1ccc(-c2ccc3[nH]nc(-c4cc(N5C[C@@H](C)O[C@@H](C)C5)ncn4)c3c2)cn1 [Example Q9] | 41.1 |
| COc1cncc(-c2ccc3[nH]nc(-c4cc(N5C[C@@H](C)O[C@@H](C)C5)ncn4)c3c2)n1 [Example Q10] | 2.4 |
| C[C@@H]1CN(c2cc(-c3n[nH]c4ccc(-c5ccnc(C#N)c5)cc34)ncn2)C[C@H](C)O1 [Example Q11] | 172 |
| Cc1ncc(-c2ccc3[nH]nc(-c4cc(N5C[C@@H](C)O[C@@H](C)C5)ncn4)c3c2)nc1C [Example Q12] | 17.4 |
| C[C@@H]1CN(c2cc(-c3n[nH]c4ccc(-c5cnc(N6CCCC6)s5)cc34)ncn2)C[C@H](C)O1 [Example Q13] | 7.6 |
| COCCn1cc(-c2ccc3[nH]nc(-c4cc(N5C[C@@H](C)O[C@@H](C)C5)ncn4)c3c2)cn1 [Example Q14] | 1.8 |
| COc1cc(-c2ccc3[nH]nc(-c4cc(N5C[C@@H](C)O[C@@H](C)C5)ncn4)c3c2)ccn1 [Example Q15] | 155 |
| C[C@@H]1CN(c2cc(-c3n[nH]c4ccc(-c5ccc6nncn6c5)cc34)ncn2)C[C@H](C)O1 [Example Q16] | 60.6 |
| C[C@@H]1CN(c2cc(-c3n[nH]c4ccc(-c5ccc(C(=O)NCCO)cc5)cc34)ncn2)C[C@H](C)O1 [Example Q17] | 77 |
| C[C@@H]1CN(c2cc(-c3n[nH]c4ccc(-c5ccc(C#N)cc5)cc34)ncn2)C[C@H](C)O1 [Example Q18] | 177 |
| C[C@@H]1CN(c2cc(-c3n[nH]c4ccc(-c5cccc(C#N)c5)cc34)ncn2)C[C@H](C)O1 [Example Q19] | 47.9 |
| CCN(CC)C(=O)c1ccc(-c2ccc3[nH]nc(-c4cc(N5C[C@@H](C)O[C@@H](C)C5)ncn4)c3c2)cc1 [Example Q20] | 847 |

Same assay, conditions: Km ATP (184 μM ATP solution), G2019S LRRK2, mean IC50

| SMILES | IC50 [nM] |
| --- | --- |
| Cn1cc(-c2ccc3[nH]nc(-c4cc(N5CCOCC5)ncn4)c3c2)cn1 [Example A1] | 2.31 |
| Cn1cc(-c2ccc3[nH]nc(-c4cc(N5CCN(S(C)(=O)=O)CC5)ncn4)c3c2)cn1 [Example A3] | 3.28 |
| CCN1CCN(c2cc(-c3n[nH]c4ccc(-c5cnn(C)c5)cc34)ncn2)CC1 [Example A8] | 0.76 |
| CC(C)=Cc1ccc2[nH]nc(-c3cc(N4CCO[C@H](C)C4)ncn3)c2c1 [Example S1] | 16.4 |
| CC(C)=Cc1ccc2[nH]nc(-c3cc(N4CCN(S(C)(=O)=O)CC4)ncn3)c2c1 [Example S2] | 28.8 |
| CC(C)=Cc1ccc2[nH]nc(-c3cc(N4CCN(C)CC4)ncn3)c2c1 [Example S3] | 32.9 |
| CC(C)=Cc1ccc2[nH]nc(-c3cc(N4CCN(C)C(=O)C4)ncn3)c2c1 [Example S4] | 36.2 |
| CC(C)=Cc1ccc2[nH]nc(-c3cc(N4C[C@@H](C)O[C@@H](C)C4)ncn3)c2c1 [Example S5] | 20.3 |
| c1cncc(-c2ccc3[nH]nc(-c4cc(N5CCOCC5)ncn4)c3c2)c1 [Example T1] | 5.5 |
| CS(=O)(=O)N1CCN(c2cc(-c3n[nH]c4ccc(-c5cccnc5)cc34)ncn2)CC1 [Example T2] | 7.3 |
| FC1(F)CCN(c2cc(-c3n[nH]c4ccc(-c5cccnc5)cc34)ncn2)CC1 [U] | 11.1 |
| CC(C)Cc1ccc2[nH]nc(-c3cc(N4CCOCC4)ncn3)c2c1 [V] | 56 |

Same assay, conditions: Table U

| SMILES | IC50 [nM] |
| --- | --- |
| FC1(F)CCN(c2cc(-c3n[nH]c4ccc(-c5ccoc5)cc34)ncn2)CC1 [Example U1] | 86.2 |
| FC1(F)CCN(c2cc(-c3n[nH]c4ccc(-c5ccsc5)cc34)ncn2)CC1 [Example U2] | 348 |
| FC1(F)CCN(c2cc(-c3n[nH]c4ccc(C5=CCNCC5)cc34)ncn2)CC1 [Example U3] | 120 |
| COc1ccncc1-c1ccc2[nH]nc(-c3cc(N4CCC(F)(F)CC4)ncn3)c2c1 [Example U4] | 6.66 |
| CC1(C)CC(=O)C=C(c2ccc3[nH]nc(-c4cc(N5CCC(F)(F)CC5)ncn4)c3c2)C1 [Example U5] | 7.08 |
| FC1(F)CCN(c2cc(-c3n[nH]c4ccc(-c5cc[nH]n5)cc34)ncn2)CC1 [Example U6] | 2.16 |
| FC1(F)CCN(c2cc(-c3n[nH]c4ccc(-c5cn[nH]c5)cc34)ncn2)CC1 [Example U7] | 5.69 |
| c1nc(-c2n[nH]c3ccc(-c4ccoc4)cc23)cc(N2CCOCC2)n1 [Example U8] | 19 |
| c1nc(-c2n[nH]c3ccc(-c4ccsc4)cc23)cc(N2CCOCC2)n1 [Example U9] | 36.4 |
| Cc1ncc(-c2ccc3[nH]nc(-c4cc(N5CCOCC5)ncn4)c3c2)s1 [Example U10] | 2.2 |
| CC1(C)CC(=O)C=C(c2ccc3[nH]nc(-c4cc(N5CCOCC5)ncn4)c3c2)C1 [Example U11] | 1.63 |
| C1=C(c2ccc3[nH]nc(-c4cc(N5CCOCC5)ncn4)c3c2)CCNC1 [Example U12] | 71.6 |
| COc1ccncc1-c1ccc2[nH]nc(-c3cc(N4CCOCC4)ncn3)c2c1 [Example U13] | 1.72 |
| c1cc(-c2ccc3[nH]nc(-c4cc(N5CCOCC5)ncn4)c3c2)[nH]n1 [Example U14] | 2.63 |
| Cc1ccc(-c2ccc3[nH]nc(-c4cc(N5CCOCC5)ncn4)c3c2)cc1 [Example U15] | 251 |
| c1nc(-c2n[nH]c3ccc(-c4cn[nH]c4)cc23)cc(N2CCOCC2)n1 [Example U16] | 2.3 |
| O=C1C=C(c2ccc3[nH]nc(-c4cc(N5CCOCC5)ncn4)c3c2)CCC1 [Example U17] | 1.63 |
| Clc1cc(-c2ccc3[nH]nc(-c4cc(N5CCOCC5)ncn4)c3c2)ccn1 [Example U18] | 266 |
| Cc1n[nH]c(C)c1-c1ccc2[nH]nc(-c3cc(N4CCOCC4)ncn3)c2c1 [Example U19] | 2.58 |
| CC(C)N1CCN(c2cc(-c3n[nH]c4ccc(-c5cccs5)cc34)ncn2)CC1 [Example U21] | 61.5 |
| CC(C)N1CCN(c2cc(-c3n[nH]c4ccc(-c5ccoc5)cc34)ncn2)CC1 [Example U22] | 9.03 |
| COc1ccncc1-c1ccc2[nH]nc(-c3cc(N4CCN(C(C)C)CC4)ncn3)c2c1 [Example U23] | 1.26 |
| CC(C)N1CCN(c2cc(-c3n[nH]c4ccc(-c5cn[nH]c5)cc34)ncn2)CC1 [Example U24] | 0.96 |
| CC(C)N1CCN(c2cc(-c3n[nH]c4ccc(-c5ccn[nH]5)cc34)ncn2)CC1 [Example U25] | 2.34 |
| COc1ccncc1-c1ccc2[nH]nc(-c3cc(N4C[C@@H](C)O[C@@H](C)C4)ncn3)c2c1 [Example U26] | 0.75 |
| C[C@@H]1CN(c2cc(-c3n[nH]c4ccc(-c5cn[nH]c5)cc34)ncn2)C[C@H](C)O1 [Example U27] | 1.35 |
| C[C@@H]1CN(c2cc(-c3n[nH]c4ccc(-c5ccn[nH]5)cc34)ncn2)C[C@H](C)O1 [Example U28] | 1.44 |
| Cc1n[nH]c(C)c1-c1ccc2[nH]nc(-c3cc(N4CCO[C@H](C)C4)ncn3)c2c1 [Example U29] | 3.2 |

Molecular target: T1, LRRK2(G2019S mutation, GST-LRRK2(amino acids 970-2527))
Experiment: LRRK2 5 mM ATP LanthaScreen Assay
Type: biochemical
Details: not given
Procedure: The data presented for the 5 mM and Km ATP LanthaScreen™ Assay represents mean IC50 values based on several test results and may have reasonable. deviations depending on the specific conditions and reagents used. Reagents for the LRRK2 5 mM and Km ATP LanthaScreen™ Assay were purchased from Life Technologies Corporation.
LRRK2 5 mM ATP LanthaScreen™ Assay
a) 400 nl of a 1:2.15 serial dilution of test compound(98 μM top assay concentration) is spotted via Labcyte Echo to certain wells in a 384 well black, untreated plate. Control wells contain 400 nl of either DMSO or 400 nl of a known inhibitor in DMSO.
b) 10 μl of a 2.5 nM LRRK2(G2019S mutation, GST-LRRK2(amino acids 970-2527)) enzyme solution in 1× assay buffer(50 mM Tris pH 8.5, 10 mM MgCl2, 0.01% Brij-35, 1.0 mM EGTA, 2 mM DTT, 0.05 mM NaVO4) is added to all wells.
c) A 30 minute room temperature incubation is followed by addition of 10 μl of 800 nM fluorescein labeled LRRKtide peptide substrate and 10 mM ATP solution in 1× assay buffer to all wells.
d) After a 35 minute room temperature incubation, 20 μl of TR-FRET Dilution Buffer(Invitrogen PV3756B) containing 4 nM Tb-labeled anti-phospho LRRKtide antibody and 20 mM EDTA is added to all wells.
e) Plates are incubated at room temperature for 1 hour and read on an Envision™ multi-mode plate reader with LanthaScreen™ settings. Results are analysed using Assay Data Analyzer.

| SMILES | IC50 [nM] |
| --- | --- |
| Cn1cc(-c2ccc3[nH]nc(-c4cc(N5CCOCC5)ncn4)c3c2)cn1 [Example A1] | 41 |
| Cn1cc(-c2ccc3[nH]nc(-c4cc(N5CCN(S(C)(=O)=O)CC5)ncn4)c3c2)cn1 [Example A3] | 36 |
| CCN1CCN(c2cc(-c3n[nH]c4ccc(-c5cnn(C)c5)cc34)ncn2)CC1 [Example A8] | 14 |
